Assay results published in ChEMBL document CHEMBL1201862, “PubChem BioAssay data set” (2004).
Calls of active or inactive are those of the source.

Experiments:
[1] = target: Sphingosine 1-phosphate receptor 4 (Homo sapiens, UniProt O95977); experiment: Late-stage fluorescence-based dose-response cell-based counterscreen assay to identify agonists of the Sphingosine 1-Phosphate Receptor 3 (S1P3): Sphingosine 1-Phosphate Receptor 4 (S1P4) agonist assay.; assay type: functional
[2] = target: Sphingosine 1-phosphate receptor 2 (Homo sapiens, UniProt O95136); experiment: Late-stage fluorescence-based dose-response cell-based counterscreen assay to identify agonists of the Sphingosine 1-Phosphate Receptor 3 (S1P3): Sphingosine 1-Phosphate Receptor 2 (S1P2) agonist assay.; assay type: functional
Fatty acid synthase [3] = target: T1, Fatty acid synthase (Homo sapiens, UniProt P49327); experiment: FAS thioesterase domain inhibitors, dose response, biochemical, kinetic fluorescence intensity (AID 624326); assay type: functional;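 also: rate of fluorescence rise from hydrolysis of a fluorogenic O-methyl fluorescein ester substrate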
Fatty acid synthase [4] = target: T1, Fatty acid synthase; experiment: FAS thioesterase domain inhibitors, dose response, biochemical, endpoint fluorescence intensity, uHTS hits (AID 624327); assay type: functional;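 also: fluorescence from hydrolysis of an O-methyl fluorescein acyl ester substrate by the enzyme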
[5] = nonselective inhibitors of cellular cAMP signaling, dose response, counter-screen for MC4R biased antagonist project, cell-based, TR-FRET cAMP detection (AID 602305); assay type: functional;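 also: U2OS cells stimulated with forskolin near its EC80 as the cAMP inducer; potency is for inhibition of forskolin-stimulated cAMP signaling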
Melanocortin receptor 4 = Melanocortin receptor 4 (Homo sapiens, UniProt P32245); experiment: MC4R antagonist potency on cAMP, dose response, cell-based, TR-FRET, biased antagonists (AID 602298); assay type: functional;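 also: antagonist potency against agonist-stimulated cAMP production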
Caspase-3 [6] = target: T2, Caspase-3 (Homo sapiens, UniProt P42574); experiment: caspase-3 inhibitors as off-family protease, SAR follow-up, selectivity assay for SENP protease inhibitor project, biochemical, luminescence, set 2 (AID 588599); assay type: functional
T2 sequence (P42574 whole entry): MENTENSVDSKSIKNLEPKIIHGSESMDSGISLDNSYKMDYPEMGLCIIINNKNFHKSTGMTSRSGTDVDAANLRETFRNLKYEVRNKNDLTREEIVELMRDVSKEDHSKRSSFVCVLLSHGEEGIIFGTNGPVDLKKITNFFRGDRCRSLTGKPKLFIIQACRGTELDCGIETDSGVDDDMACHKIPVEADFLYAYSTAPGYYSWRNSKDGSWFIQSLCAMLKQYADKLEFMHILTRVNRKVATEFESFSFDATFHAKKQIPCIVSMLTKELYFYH

[7] = target: T3, Sentrin-specific protease 7 (Homo sapiens, UniProt Q9BQF6); experiment: SENP7 protease inhibitors, SAR follow-up, biochemical, luminescence (AID 504497); assay type: functional
T3 sequence (Q9BQF6 whole entry): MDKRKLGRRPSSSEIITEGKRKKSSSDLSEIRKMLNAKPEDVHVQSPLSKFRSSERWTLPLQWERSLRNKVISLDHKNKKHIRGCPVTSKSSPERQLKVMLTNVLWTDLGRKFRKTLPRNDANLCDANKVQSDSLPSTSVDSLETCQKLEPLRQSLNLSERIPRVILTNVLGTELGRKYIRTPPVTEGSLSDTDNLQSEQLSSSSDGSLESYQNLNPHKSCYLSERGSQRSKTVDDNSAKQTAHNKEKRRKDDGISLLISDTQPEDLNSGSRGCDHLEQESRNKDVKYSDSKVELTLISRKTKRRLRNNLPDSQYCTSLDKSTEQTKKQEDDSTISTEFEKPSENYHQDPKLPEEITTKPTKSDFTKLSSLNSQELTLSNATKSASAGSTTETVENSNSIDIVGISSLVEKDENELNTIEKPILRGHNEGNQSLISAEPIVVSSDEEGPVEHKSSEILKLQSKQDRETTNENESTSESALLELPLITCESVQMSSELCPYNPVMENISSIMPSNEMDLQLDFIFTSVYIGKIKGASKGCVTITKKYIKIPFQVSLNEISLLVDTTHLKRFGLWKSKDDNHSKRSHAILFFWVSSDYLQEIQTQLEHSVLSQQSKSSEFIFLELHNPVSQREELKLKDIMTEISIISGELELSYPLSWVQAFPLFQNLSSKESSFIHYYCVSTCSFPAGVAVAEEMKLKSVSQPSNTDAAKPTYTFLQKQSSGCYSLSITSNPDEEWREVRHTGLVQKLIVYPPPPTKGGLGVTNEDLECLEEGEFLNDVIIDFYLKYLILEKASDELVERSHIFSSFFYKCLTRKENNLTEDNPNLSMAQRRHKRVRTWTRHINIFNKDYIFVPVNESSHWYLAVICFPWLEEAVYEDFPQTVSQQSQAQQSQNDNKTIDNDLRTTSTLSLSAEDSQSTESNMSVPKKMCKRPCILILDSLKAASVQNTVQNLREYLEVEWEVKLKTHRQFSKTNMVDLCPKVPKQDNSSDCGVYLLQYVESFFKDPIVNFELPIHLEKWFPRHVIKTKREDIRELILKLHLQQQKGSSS

[8] = target: T4, Sentrin-specific protease 6 (Homo sapiens, UniProt Q9GZR1); experiment: SAR Analysis of small molecule inhibitors of Sentrin-specific protease 6 (SENP6) using a Luminescent assay. [Related pubchem assays (depositor defined):AID2582, AID2599]; assay type: functional
T4 sequence (Q9GZR1 whole entry): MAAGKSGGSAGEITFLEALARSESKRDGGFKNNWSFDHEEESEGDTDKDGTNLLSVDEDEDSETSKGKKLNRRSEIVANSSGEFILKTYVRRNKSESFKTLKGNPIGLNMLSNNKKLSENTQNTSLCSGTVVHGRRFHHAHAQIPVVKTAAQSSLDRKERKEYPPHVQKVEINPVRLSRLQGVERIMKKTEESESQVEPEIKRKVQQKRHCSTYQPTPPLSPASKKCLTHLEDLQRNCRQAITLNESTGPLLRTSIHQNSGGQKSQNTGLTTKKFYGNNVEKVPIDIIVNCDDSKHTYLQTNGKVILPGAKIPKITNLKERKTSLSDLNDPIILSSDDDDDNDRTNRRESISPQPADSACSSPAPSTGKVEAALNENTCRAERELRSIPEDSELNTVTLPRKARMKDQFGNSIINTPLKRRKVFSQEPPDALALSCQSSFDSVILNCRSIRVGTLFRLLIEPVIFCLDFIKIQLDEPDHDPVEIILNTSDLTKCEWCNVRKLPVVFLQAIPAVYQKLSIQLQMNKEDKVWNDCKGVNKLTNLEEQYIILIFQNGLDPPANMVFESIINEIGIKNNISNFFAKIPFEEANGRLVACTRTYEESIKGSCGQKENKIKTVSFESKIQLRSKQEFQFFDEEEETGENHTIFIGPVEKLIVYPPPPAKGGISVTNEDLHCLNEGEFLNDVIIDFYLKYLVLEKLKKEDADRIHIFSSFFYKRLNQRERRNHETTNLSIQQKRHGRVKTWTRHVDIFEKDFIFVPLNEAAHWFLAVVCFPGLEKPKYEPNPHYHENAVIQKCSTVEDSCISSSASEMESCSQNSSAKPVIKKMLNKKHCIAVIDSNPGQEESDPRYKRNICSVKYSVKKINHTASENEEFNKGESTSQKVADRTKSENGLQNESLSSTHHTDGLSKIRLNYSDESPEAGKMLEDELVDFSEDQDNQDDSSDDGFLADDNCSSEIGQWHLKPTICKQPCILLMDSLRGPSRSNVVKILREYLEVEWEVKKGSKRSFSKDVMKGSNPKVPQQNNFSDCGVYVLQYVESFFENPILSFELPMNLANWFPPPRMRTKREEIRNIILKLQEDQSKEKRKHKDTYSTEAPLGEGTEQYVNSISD

[9] = target: T5, Sentrin-specific protease 8 (Homo sapiens, UniProt Q96LD8); experiment: SENP8 protease inhibitors, SAR follow-up, biochemical, luminescence, set 2 (AID 588601); assay type: functional
T5 sequence (Q96LD8 whole entry): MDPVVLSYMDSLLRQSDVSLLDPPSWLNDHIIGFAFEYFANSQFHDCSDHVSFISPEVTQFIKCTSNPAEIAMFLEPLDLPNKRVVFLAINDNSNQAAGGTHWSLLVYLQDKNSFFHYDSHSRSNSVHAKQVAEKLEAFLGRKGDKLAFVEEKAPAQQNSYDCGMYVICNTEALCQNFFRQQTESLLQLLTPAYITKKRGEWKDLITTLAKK

[10] = target: T3, Sentrin-specific protease 7; experiment: SENP7 protease inhibitors, SAR follow-up, biochemical, luminescence, set 2 (AID 588600); assay type: functional
[11] = target: T5, Sentrin-specific protease 8; experiment: SENP8 protease inhibitors, SAR follow-up, biochemical, luminescence (AID 504501); assay type: functional
Caspase-3 [12] = target: T2, Caspase-3; experiment: SAR Analysis of small molecule inhibitors of Sentrin-specific proteases (SENPs) using a Caspase-3 Selectivity assay. [Related pubchem assays (depositor defined):AID2540, AID2599, AID434973, AID489001]; assay type: functional
[13] = target: T4, Sentrin-specific protease 6; experiment: SENP6 protease inhibitors, SAR follow-up, biochemical, luminescence, set 2 (AID 588598); assay type: functional
[14] = target: Melanin-concentrating hormone receptor 1 (Homo sapiens, UniProt Q99705); experiment: Late-stage fluorescence-based counterscreen for antagonists of the G-protein coupled receptor 7 (GPR7): cell-based dose response assay to identify antagonists of the melanin-concentrating hormone receptor 1 (MCHR1) Set 5.; assay type: functional
[15] = target: Neuropeptides B/W receptor type 1 (Homo sapiens, UniProt P48145); experiment: GPR7 antagonist potency, late-stage follow-up, cell-based, fluorescence, dose response, set 5 (AID 588566); assay type: functional
[16] = target: Interleukin-1 receptor-associated kinase 4 (Homo sapiens, UniProt Q9NWZ3); assay type: functional
[17] = target: Mitogen-activated protein kinase kinase kinase kinase 4 (Homo sapiens, UniProt O95819); assay type: functional
[18] = target: MAP kinase-interacting serine/threonine-protein kinase 2 (Homo sapiens, UniProt Q9HBH9); assay type: functional
[19] = target: Mitogen-activated protein kinase kinase kinase kinase 5 (Homo sapiens, UniProt Q9Y4K4); assay type: functional;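 also: measured as one member of a kinome-spanning kinase panel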
[20] = target: Dual specificity protein kinase CLK4 (Homo sapiens, UniProt Q9HAZ1); assay type: functional
[21] = target: Serine/threonine-protein kinase PAK 1 (Homo sapiens, UniProt Q13153); assay type: functional
HEK293 [22] = experiment: optical interference in Abeta FP readout, dose response, artefact control for IDE activator project, biochemical, fluorescence polarization (AID 588442); assay type: functional, cell-based; details: Homo sapiens
Insulin-degrading enzyme [23] = target: T6, Insulin-degrading enzyme (Homo sapiens, UniProt P14735); experiment: activators of recombinant IDE enzyme, dose response, counter-screen for IDE activator project, biochemical, fluorescence polarization (AID 588681)
[24] = Luminescence Cell-Based Dose Retest to Confirm Inhibitors of Cancer Stem Cells. [Related pubchem assays (depositor defined):AID2717, AID2721]; assay type: functional; details: Homo sapiens
HEK293 [25] = experiment: HEK cell cytotoxicity by LDH release, dose response, cytotoxicity control for IDE activator project, fluorescence, HEK cells (AID 588440); assay type: functional, cell-based; details: Homo sapiens;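 also: cytotoxicity by LDH release measuring loss of membrane integrity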
CHO = experiment: cytotoxicity in TLR9-MyD88 CHO cells, dose response, cytotoxicity control for TLR9-MyD88 binding inhibitor project, cell-based, luminescence (AID 588339); assay type: functional, hamster; details: Cricetulus griseus;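 also: CHO cells stably coexpressing TLR9 and MyD88 fusions from primary screen; compound exposure lasted 48 hours before viability readout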
Insulin-degrading enzyme [26] = target: T6, Insulin-degrading enzyme; experiment: activators of endogenous IDE in HEK cells, dose response, cell-based, fluorescence polarization (AID 588439); assay type: functional
Beta Lactamase = Beta Lactamase (Pseudomonas aeruginosa, UniProt Q932Y6); experiment: beta-lactamase reporter inhibitor potency, dose response, artefact control for TLR9-MyD88 binding inhibitor project, BLA reporter cells, FRET fluorescence (AID 588341); assay type: cell-based;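 also: cell based assay in CHO-K1 cells stably expressing beta-lactamase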
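For AC50 in this document: cells exposed to compound for roughly 70 hours or longer before luminescence read.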

T6 sequence (P14735 whole entry): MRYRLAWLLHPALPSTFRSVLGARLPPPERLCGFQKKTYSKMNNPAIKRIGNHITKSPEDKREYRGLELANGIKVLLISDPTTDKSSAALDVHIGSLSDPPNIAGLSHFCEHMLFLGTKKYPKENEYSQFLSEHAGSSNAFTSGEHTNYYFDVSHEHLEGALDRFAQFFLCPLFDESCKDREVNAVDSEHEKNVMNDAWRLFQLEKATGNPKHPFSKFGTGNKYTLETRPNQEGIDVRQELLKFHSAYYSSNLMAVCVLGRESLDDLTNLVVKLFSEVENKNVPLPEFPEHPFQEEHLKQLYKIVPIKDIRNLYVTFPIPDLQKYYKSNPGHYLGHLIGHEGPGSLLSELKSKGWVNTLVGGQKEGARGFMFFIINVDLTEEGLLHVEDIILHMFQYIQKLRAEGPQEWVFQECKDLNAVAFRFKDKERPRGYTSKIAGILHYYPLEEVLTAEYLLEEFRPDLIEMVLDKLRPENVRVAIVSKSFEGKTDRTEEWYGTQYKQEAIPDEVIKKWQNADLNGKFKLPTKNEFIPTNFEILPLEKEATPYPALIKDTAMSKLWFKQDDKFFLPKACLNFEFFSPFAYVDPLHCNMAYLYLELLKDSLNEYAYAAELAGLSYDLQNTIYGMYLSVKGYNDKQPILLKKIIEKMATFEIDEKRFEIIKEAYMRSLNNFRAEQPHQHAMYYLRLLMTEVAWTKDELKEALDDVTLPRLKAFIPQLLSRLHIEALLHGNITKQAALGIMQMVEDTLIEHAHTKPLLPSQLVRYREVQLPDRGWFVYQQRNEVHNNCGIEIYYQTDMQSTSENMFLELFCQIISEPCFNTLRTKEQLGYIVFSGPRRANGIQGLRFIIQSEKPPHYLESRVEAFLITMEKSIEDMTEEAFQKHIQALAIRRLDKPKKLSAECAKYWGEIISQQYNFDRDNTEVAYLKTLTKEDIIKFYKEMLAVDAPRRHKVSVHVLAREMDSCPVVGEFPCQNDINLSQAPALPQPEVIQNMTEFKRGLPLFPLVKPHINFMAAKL
T1 sequence (P49327 whole entry, the tested form may be a part): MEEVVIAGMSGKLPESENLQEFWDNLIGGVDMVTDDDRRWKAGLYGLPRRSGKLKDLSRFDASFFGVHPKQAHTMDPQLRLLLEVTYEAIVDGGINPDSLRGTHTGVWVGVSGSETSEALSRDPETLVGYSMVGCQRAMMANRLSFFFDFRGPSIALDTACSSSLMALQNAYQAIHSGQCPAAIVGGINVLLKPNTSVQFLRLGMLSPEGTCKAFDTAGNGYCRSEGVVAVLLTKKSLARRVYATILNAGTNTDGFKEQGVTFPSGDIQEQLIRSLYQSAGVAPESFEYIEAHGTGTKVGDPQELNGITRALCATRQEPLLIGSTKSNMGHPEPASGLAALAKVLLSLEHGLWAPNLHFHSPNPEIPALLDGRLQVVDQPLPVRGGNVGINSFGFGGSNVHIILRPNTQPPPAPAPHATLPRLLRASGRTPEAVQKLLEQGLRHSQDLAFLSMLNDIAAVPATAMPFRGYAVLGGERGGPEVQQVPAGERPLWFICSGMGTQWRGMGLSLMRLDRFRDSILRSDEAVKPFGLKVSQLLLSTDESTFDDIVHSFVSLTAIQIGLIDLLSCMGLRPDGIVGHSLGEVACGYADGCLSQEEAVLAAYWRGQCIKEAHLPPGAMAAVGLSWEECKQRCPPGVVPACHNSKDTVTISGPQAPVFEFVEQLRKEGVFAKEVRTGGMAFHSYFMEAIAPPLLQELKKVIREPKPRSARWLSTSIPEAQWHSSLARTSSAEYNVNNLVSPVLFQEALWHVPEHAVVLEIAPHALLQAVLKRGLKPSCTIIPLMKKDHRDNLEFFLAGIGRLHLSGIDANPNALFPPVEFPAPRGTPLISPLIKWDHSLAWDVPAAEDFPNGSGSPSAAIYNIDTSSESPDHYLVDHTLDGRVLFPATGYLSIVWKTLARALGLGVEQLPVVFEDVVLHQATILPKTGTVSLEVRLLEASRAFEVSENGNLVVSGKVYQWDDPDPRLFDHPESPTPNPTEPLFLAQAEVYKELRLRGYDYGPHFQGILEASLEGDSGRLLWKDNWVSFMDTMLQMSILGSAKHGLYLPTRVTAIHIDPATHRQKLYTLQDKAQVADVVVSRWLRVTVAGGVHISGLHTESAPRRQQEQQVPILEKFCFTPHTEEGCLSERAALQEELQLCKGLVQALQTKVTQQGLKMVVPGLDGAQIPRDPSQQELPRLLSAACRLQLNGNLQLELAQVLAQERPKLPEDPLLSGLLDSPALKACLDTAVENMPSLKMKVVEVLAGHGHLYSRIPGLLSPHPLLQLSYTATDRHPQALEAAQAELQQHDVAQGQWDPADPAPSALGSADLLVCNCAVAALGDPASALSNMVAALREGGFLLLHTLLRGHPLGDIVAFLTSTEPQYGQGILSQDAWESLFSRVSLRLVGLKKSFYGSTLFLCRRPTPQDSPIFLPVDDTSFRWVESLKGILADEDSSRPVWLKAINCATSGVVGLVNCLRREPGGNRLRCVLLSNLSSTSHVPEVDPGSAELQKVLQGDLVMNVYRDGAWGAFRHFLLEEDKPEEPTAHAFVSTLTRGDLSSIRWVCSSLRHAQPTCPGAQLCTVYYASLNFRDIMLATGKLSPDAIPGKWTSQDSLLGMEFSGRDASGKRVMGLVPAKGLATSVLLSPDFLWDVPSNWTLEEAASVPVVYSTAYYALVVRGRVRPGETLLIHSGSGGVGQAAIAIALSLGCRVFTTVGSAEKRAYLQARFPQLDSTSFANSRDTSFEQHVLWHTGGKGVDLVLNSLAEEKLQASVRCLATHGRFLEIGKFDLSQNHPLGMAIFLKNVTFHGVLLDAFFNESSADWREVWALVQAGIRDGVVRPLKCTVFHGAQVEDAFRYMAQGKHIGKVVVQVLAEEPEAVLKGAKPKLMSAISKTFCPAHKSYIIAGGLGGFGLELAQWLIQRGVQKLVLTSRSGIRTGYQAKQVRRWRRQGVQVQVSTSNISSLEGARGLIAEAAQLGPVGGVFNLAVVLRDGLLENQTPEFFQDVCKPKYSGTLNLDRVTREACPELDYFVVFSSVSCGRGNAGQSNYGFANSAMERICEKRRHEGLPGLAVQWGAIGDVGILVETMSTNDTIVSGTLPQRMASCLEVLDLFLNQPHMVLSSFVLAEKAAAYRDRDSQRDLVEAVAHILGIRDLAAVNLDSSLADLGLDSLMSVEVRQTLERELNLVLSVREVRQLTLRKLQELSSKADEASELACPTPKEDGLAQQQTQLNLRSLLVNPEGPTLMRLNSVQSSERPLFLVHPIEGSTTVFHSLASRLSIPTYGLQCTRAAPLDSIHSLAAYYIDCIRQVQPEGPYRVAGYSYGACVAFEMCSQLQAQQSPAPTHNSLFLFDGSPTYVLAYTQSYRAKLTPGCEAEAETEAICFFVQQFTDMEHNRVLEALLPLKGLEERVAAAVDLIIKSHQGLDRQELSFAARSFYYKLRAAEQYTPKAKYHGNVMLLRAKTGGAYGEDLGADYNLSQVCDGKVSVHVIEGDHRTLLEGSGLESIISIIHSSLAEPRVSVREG
Sequence of Mitogen-activated protein kinase kinase kinase kinase 5 (Q9Y4K4 whole entry): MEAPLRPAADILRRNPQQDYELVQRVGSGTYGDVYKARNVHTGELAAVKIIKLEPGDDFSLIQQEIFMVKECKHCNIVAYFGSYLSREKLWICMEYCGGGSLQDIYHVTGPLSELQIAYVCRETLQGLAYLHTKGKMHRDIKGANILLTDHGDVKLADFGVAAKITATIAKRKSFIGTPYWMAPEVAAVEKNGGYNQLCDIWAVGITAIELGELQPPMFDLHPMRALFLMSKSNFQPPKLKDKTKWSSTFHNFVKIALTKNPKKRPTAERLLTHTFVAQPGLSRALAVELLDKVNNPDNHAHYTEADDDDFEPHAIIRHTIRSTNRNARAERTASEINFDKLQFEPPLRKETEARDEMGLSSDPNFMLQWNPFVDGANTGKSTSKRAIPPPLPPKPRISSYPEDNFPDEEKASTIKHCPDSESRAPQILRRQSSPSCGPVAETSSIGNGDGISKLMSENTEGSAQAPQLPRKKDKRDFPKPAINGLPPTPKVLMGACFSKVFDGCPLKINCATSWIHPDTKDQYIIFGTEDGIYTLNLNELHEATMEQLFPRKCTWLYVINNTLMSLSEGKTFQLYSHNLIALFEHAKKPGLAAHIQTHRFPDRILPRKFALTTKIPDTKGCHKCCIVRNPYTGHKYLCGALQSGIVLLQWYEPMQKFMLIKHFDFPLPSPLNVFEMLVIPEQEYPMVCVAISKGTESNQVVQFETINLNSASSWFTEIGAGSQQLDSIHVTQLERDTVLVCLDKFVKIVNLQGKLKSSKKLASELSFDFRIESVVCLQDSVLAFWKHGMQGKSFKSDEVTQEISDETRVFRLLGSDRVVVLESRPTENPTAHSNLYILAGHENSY
Sequence of Neuropeptides B/W receptor type 1 (P48145 whole entry): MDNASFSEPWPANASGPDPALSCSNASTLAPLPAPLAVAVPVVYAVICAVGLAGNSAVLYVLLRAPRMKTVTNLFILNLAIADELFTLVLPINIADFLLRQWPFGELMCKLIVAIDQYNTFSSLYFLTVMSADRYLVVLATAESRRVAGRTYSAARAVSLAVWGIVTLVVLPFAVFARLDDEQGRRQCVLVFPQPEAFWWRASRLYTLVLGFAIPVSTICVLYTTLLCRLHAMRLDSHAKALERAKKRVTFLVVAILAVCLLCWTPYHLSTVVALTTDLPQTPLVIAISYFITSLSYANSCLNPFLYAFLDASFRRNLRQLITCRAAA
Sequence of Sphingosine 1-phosphate receptor 2 (O95136 whole entry, the tested form may be a part): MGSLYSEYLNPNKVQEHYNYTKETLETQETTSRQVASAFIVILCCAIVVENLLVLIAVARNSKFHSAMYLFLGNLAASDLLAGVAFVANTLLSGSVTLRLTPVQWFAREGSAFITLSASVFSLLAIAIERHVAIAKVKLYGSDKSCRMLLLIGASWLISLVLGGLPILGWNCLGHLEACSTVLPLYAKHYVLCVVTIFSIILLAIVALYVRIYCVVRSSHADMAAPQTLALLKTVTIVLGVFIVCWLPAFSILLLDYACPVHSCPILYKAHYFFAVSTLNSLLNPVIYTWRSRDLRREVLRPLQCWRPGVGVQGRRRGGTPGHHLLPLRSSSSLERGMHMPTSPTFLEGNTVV

CCCc1cc(C(=O)NC2CCCCC2)no1
EC50 [1]: > 50 µM (inactive) | EC50 [2]: > 50 µM (inactive)

O=C(Oc1ccccc1C(=O)Nc1ccccc1)c1ccc(Br)c([N+](=O)[O-])c1
IC50 (Fatty acid synthase [3]): 5.97 µM (active) | IC50 (Fatty acid synthase [4]): 4.66 µM (active) | IC50 [5]: > 64.6 µM (inactive) | IC50 (Melanocortin receptor 4): > 64.6 µM (inactive)

O=C(Nc1nc2c(F)cccc2s1)c1cccs1
IC50 (Caspase-3 [6]): 3.68 µM (active) | IC50 [7]: 2 µM (active) | IC50 [8]: 3.5 µM (active) | IC50 [9]: 2.66 µM (active) | IC50 [10]: 2.7 µM (active) | IC50 [11]: 4.1 µM (active) | IC50 (Caspase-3 [12]): 3.6 µM (active) | IC50 [13]: 3.02 µM (active)

CCOc1ccc(Oc2c(S(C)(=O)=O)cnn(Cc3cccc4ccccc34)c2=O)cc1
IC50 [14]: 0.804 µM (active) | IC50 [15]: 2.55 µM (active)

CC(=O)c1cccc(-c2cnc3ccccc3c2)c1
Ki [16]: > 10 µM (inactive) | Ki [17]: 1.26 µM (active) | Ki [18]: 6.31 µM (active) | Ki [19]: 1 µM (active) | Ki [20]: 3.98 µM (active) | Ki [21]: > 10 µM (inactive)

CCCCCCSc1cc(-c2nc3cnccn3c2NCCCC)ccc1OC
EC50 (HEK293 [22]): > 56 µM (inactive) | EC50 (Insulin-degrading enzyme [23]): > 54.7 µM (inactive) | AC50 [24]: 4.56 µM (active) | IC50 (HEK293 [25]): 33.6 µM (inactive) | IC50 (CHO): 21.2 µM (inactive) | EC50 (Insulin-degrading enzyme [26]): 13.9 µM (inactive) | IC50 (Beta Lactamase): 7.42 µM (active)
